Measured values: patent US20030004172A1, “Fused pyrimidinone matrix metalloproteinase inhibitors” (priority 2001, published 2003)

Target: MMP-13CD (catalytic domain of collagenase-3) (Homo sapiens, UniProt P45452)
Test: Thiopeptolide substrate hydrolysis inhibition assay, MMP-13CD
Assay type: biochemical
Conditions: Table I; thiopeptolide substrate, HEPES pH 7.0, 22° C.; read-out: MMP-13CD IC50
Excerpt: Thiopeptolide substrates show virtually no decomposition or hydrolysis at or below neutral pH in the absence of a matrix metalloproteinase enzyme.

| Compound | IC50 [nM] |
| --- | --- |
| COc1ccc(Br)cc1COC(=O)c1cc2c(=O)n(Cc3ccccc3)c(=O)n(C)c2s1 [Example 196, 3-Benzyl-1-methyl-2,4-dioxo-1,2,3,4-tetrahydro-thieno[2,3-d]pyrimidine-6-carboxylic acid 5-bromo-2-methoxy-benzyl ester] | 30000 |
| Cn1c(=O)n(Cc2ccccc2)c(=O)c2cc(C(=O)OCc3ccc4c(c3)OCO4)sc21 [Example 201, 3-Benzyl-1-methyl-2,4-dioxo-1,2,3,4-tetrahydro-thieno[2,3-d]pyrimidine-6-carboxylic acid 1,3-benzodioxol-5-ylmethyl ester] | 300 |
| Cn1c(=O)n(Cc2ccccc2)c(=O)c2cc(C(=O)OCCC(c3ccccc3)c3ccccc3)sc21 [Example 205, 3-Benzyl-1-methyl-2,4-dioxo-1,2,3,4-tetrahydro-thieno[2,3-d]pyrimidine-6-carboxylic acid 3,3-diphenyl-propyl ester] | 19000 |
| C=CCCOC(=O)c1cc2c(=O)n(Cc3ccccc3)c(=O)n(C)c2s1 [Example 208, 3-Benzyl-1-methyl-2,4-dioxo-1,2,3,4-tetrahydro-thieno[2,3-d]pyrimidine-6-carboxylic acid but-3-enyl ester] | 100 |
| Cn1c(=O)n(Cc2ccccc2)c(=O)c2cc(C(=O)OCCC#N)sc21 [Example 209, 3-Benzyl-1-methyl-2,4-dioxo-1,2,3,4-tetrahydro-thieno[2,3-d]pyrimidine-6-carboxylic acid 2-cyano-ethyl ester] | > 100000 |
| CCOCCOC(=O)c1cc2c(=O)n(Cc3ccccc3)c(=O)n(C)c2s1 [Example 210, 3-Benzyl-1-methyl-2,4-dioxo-1,2,3,4-tetrahydro-thieno[2,3-d]pyrimidine-6-carboxylic acid 2-ethoxy-ethyl ester] | 1200 |
| Cn1c(=O)n(Cc2ccccc2)c(=O)c2cc(C(=O)OC(C#N)c3ccccc3)sc21 (stereo not drawn) [Example 211, 3-Benzyl-1-methyl-2,4-dioxo-1,2,3,4-tetrahydro-thieno[2,3-d]pyrimidine-6-carboxylic acid cyano-phenyl-methyl ester] | 2100 |
| Cn1c(=O)n(Cc2ccccc2)c(=O)c2cc(C(=O)NCc3ccc(C(F)(F)F)cc3)sc21 [Example 212, 3-Benzyl-1-methyl-2,4-dioxo-1,2,3,4-tetrahydro-thieno[2,3-d]pyrimidine-6-carboxylic acid 4-trifluoromethyl-benzylamide] | 670 |
| Cc1ccc(CNC(=O)c2cc3c(=O)n(Cc4ccccc4)c(=O)n(C)c3s2)cc1 [Example 213, 3-Benzyl-1-methyl-2,4-dioxo-1,2,3,4-tetrahydro-thieno[2,3-d]pyrimidine-6-carboxylic acid 4-methyl-benzylamide] | 1700 |
| COc1ccc(CNC(=O)c2cc3c(=O)[nH]c(=O)n(C)c3s2)cc1 [Example 216] | 18000 |
| COc1cccc(CNC(=O)c2cc3c(=O)[nH]c(=O)n(C)c3s2)c1 [Example 218] | 18000 |
| COc1cc(CNC(=O)c2cc3c(=O)[nH]c(=O)n(C)c3s2)ccn1 [Example 219, 1-methyl-2,4-dioxo-1,2,3,4-tetrahydro-thieno[2,3-d]pyrimidine-6-carboxylic acid (2-methoxy-pyridin-4-ylmethyl)-amide] | 17000 |
| COc1ccc(CNC(=O)c2cc3c(=O)n(Cc4ccc(-c5noc(=O)[nH]5)cc4)c(=O)n(C)c3s2)cc1 [Example 221, 1-Methyl-2,4-dioxo-3-[4-(5-oxo-4,5-dihydro-1,2,4-oxadiazol-3-yl)-benzyl]-1,2,3,4-tetrahydro-thieno[2,3-d]pyrimidine-6-carboxylic acid 4-methoxy-benzylamide] | 4.6 |
| COc1ccc(CNC(=O)c2cc3c(=O)n(Cc4ccc(-c5noc(=S)[nH]5)cc4)c(=O)n(C)c3s2)cc1 [Example 222, 1-Methyl-2,4-dioxo-3-[4-(5-thioxo-4,5-dihydro-1,2,4-oxadiazol-3-yl)-benzyl]-1,2,3,4-tetrahydro-thieno[2,3-d]pyrimidine-6-carboxylic acid 4-methoxy-benzylamide] | 4.2 |
| COc1ccc(CNC(=O)c2cc3c(=O)n(C/C=C/C(=O)O)c(=O)n(C)c3s2)cc1 [Example 226, (E)-4-[6-(4-Methoxy-benzylcarbamoyl)-1-methyl-2,4-dioxo-1,4-dihydro-2H-thieno[2,3-d]pyrimidin-3-yl]-but-2-enoic acid] | 4900 |
| COc1ccc(CNC(=O)c2cc3c(=O)n(CCS(=O)(=O)c4ccccc4)c(=O)n(C)c3s2)cc1 [Example 227, 3-(2-Benzenesulfonyl-ethyl)-1-methyl-2,4-dioxo-1,2,3,4-tetrahydro-thieno[2,3-d]pyrimidine-6-carboxylic acid 4-methoxy-benzylamide] | 3800 |
| COCN1C(=O)c2ccc(Cn3c(=O)c4cc(C(=O)NCc5ccc(OC)cc5)sc4n(C)c3=O)cc2S1(=O)=O [Example 229, 3-(2-Methoxymethyl-1,1,3-trioxo-2,3-dihydro-1H-1l^6l-1,2-benzisothiazol-6-ylmethyl)-1-methyl-2,4-dioxo-1,2,3,4-tetrahydro-thieno[2,3-d]pyrimidine-6-carboxylic acid 4-methoxy-benzylamide] | 680 |
| CCCCCC#CCn1c(=O)c2cc(C(=O)NCc3ccc(OC)cc3)sc2n(C)c1=O [Example 230, 1-Methyl-3-oct-2-ynyl-2,4-dioxo-1,2,3,4-tetrahydro-thieno[2,3-d]pyrimidine-6-carboxylic acid 4-methoxy-benzylamide] | 77 |

Further lines, results first:

| IC50 [nM] | Compound |
| --- | --- |
| 3.4 | COc1cccc(COC(=O)c2cc3c(=O)n(Cc4ccccc4)c(=O)n(C)c3s2)c1 [Example 192, 3-Benzyl-1-methyl-2,4-dioxo-1,2,3,4-tetrahydro-thieno[2,3-d]pyrimidine-6-carboxylic acid 3-methoxy-benzyl ester] |
| 3.4 | COc1cccc(COC(=O)c2cc3c(=O)n(Cc4ccccc4)c(=O)n(C)c3s2)c1 [Example 193, 3-Benzyl-1-methyl-2,4-dioxo-1,2,3,4-tetrahydro-thieno[2,3-d]pyrimidine-6-carboxylic acid 3-methoxy-benzyl ester] |
| 88000 | Cn1c(=O)n(Cc2ccccc2)c(=O)c2cc(C(=O)OCCCc3ccccn3)sc21 [Example 194, 3-Benzyl-1-methyl-2,4-dioxo-1,2,3,4-tetrahydro-thieno[2,3-d]pyrimidine-6-carboxylic acid 3-pyridin-2-yl-propyl ester] |
| > 100000 | Cn1c(=O)n(Cc2ccccc2)c(=O)c2cc(C(=O)OCCC3CCCCN3)sc21 (stereo not drawn) [Example 195, 3-Benzyl-1-methyl-2,4-dioxo-1,2,3,4-tetrahydro-thieno[2,3-d]pyrimidine-6-carboxylic acid 2-piperidin-2-yl-ethyl ester] |
| > 100000 | Cn1c(=O)n(Cc2ccccc2)c(=O)c2cc(C(=O)OCC3CCCCCC3)sc21 [Example 197, 3-Benzyl-1-methyl-2,4-dioxo-1,2,3,4-tetrahydro-thieno[2,3-d]pyrimidine-6-carboxylic acid cycloheptylmethyl ester] |
| > 100000 | Cn1c(=O)n(Cc2ccccc2)c(=O)c2cc(C(=O)OC3CCCc4ccccc43)sc21 (stereo not drawn) [Example 198, 3-Benzyl-1-methyl-2,4-dioxo-1,2,3,4-tetrahydro-thieno[2,3-d]pyrimidine-6-carboxylic acid 1,2,3,4-tetrahydro-naphthalen-1-yl ester] |
| 17000 | Cn1c(=O)n(Cc2ccccc2)c(=O)c2cc(C(=O)OCC3CCCN3)sc21 (stereo not drawn) [Example 199, 3-Benzyl-1-methyl-2,4-dioxo-1,2,3,4-tetrahydro-thieno[2,3-d]pyrimidine-6-carboxylic acid pyrrolidin-2-ylmethyl ester] |
| 67 | Cn1c(=O)n(Cc2ccccc2)c(=O)c2cc(C(=O)OCc3cccc(Cl)c3)sc21 [Example 200, 3-Benzyl-1-methyl-2,4-dioxo-1,2,3,4-tetrahydro-thieno[2,3-d]pyrimidine-6-carboxylic acid 3-chloro-benzyl ester] |
| 360 | CSc1ccc(COC(=O)c2cc3c(=O)n(Cc4ccccc4)c(=O)n(C)c3s2)cc1 [Example 202, 3-Benzyl-1-methyl-2,4-dioxo-1,2,3,4-tetrahydro-thieno[2,3-d]pyrimidine-6-carboxylic acid 4-methylsulfanyl-benzyl ester] |
| 360 | CSc1ccc(COC(=O)c2cc3c(=O)n(Cc4ccccc4)c(=O)n(C)c3s2)cc1 [Example 203, 3-Benzyl-1-methyl-2,4-dioxo-1,2,3,4-tetrahydro-thieno[2,3-d]pyrimidine-6-carboxylic acid 4-methylsulfanyl-benzyl ester] |
| 72 | Cn1c(=O)n(Cc2ccccc2)c(=O)c2cc(C(=O)OCc3ccc(Cl)c(Cl)c3)sc21 [Example 204, 3-Benzyl-1-methyl-2,4-dioxo-1,2,3,4-tetrahydro-thieno[2,3-d]pyrimidine-6-carboxylic acid 3,4-dichloro-benzyl ester] |
| 15000 | Cn1c(=O)n(Cc2ccccc2)c(=O)c2cc(C(=O)OCCc3ccccn3)sc21 [Example 206, 3-Benzyl-1-methyl-2,4-dioxo-1,2,3,4-tetrahydro-thieno[2,3-d]pyrimidine-6-carboxylic acid 2-pyridin-2-yl-ethyl ester] |
| 200 | Cn1c(=O)n(Cc2ccccc2)c(=O)c2cc(C(=O)OCc3ccoc3)sc21 [Example 207, 3-Benzyl-1-methyl-2,4-dioxo-1,2,3,4-tetrahydro-thieno[2,3-d]pyrimidine-6-carboxylic acid furan-3-ylmethyl ester] |
| 20000 | Cn1c(=O)n(Cc2ccccc2)c(=O)c2cc(C(=O)NCCc3ccccc3)sc21 [Example 214, 3-Benzyl-1-methyl-2,4-dioxo-1,2,3,4-tetrahydro-thieno[2,3-d]pyrimidine-6-carboxylic acid phenethyl-amide] |
| 24000 | Cn1c(=O)n(Cc2ccccc2)c(=O)c2cc(C(=O)NC3CC3)sc21 [Example 215, 3-Benzyl-1-methyl-2,4-dioxo-1,2,3,4-tetrahydro-thieno[2,3-d]pyrimidine-6-carboxylic acid cyclopropylamide] |
